The values below come from PubChem BioAssay AID588735 (Vanderbilt Specialized Chemistry Center, 2011).

The experiment addresses Metabotropic glutamate receptor 5 (Rattus norvegicus) (UniProt P31424). Description: PubChem AID 588735. The conditions noted are these: HEK293 rat mGluR5, calcium fluorescence, at 10 µM, stronger effect = higher value.

SMILES strings stand for the structures.

The term Emax denotes the maximal effect, on the per cent scale that the assay sets.

Metabotropic glutamate receptor 5 (Rattus norvegicus), sequence (P31424 whole entry, looked up): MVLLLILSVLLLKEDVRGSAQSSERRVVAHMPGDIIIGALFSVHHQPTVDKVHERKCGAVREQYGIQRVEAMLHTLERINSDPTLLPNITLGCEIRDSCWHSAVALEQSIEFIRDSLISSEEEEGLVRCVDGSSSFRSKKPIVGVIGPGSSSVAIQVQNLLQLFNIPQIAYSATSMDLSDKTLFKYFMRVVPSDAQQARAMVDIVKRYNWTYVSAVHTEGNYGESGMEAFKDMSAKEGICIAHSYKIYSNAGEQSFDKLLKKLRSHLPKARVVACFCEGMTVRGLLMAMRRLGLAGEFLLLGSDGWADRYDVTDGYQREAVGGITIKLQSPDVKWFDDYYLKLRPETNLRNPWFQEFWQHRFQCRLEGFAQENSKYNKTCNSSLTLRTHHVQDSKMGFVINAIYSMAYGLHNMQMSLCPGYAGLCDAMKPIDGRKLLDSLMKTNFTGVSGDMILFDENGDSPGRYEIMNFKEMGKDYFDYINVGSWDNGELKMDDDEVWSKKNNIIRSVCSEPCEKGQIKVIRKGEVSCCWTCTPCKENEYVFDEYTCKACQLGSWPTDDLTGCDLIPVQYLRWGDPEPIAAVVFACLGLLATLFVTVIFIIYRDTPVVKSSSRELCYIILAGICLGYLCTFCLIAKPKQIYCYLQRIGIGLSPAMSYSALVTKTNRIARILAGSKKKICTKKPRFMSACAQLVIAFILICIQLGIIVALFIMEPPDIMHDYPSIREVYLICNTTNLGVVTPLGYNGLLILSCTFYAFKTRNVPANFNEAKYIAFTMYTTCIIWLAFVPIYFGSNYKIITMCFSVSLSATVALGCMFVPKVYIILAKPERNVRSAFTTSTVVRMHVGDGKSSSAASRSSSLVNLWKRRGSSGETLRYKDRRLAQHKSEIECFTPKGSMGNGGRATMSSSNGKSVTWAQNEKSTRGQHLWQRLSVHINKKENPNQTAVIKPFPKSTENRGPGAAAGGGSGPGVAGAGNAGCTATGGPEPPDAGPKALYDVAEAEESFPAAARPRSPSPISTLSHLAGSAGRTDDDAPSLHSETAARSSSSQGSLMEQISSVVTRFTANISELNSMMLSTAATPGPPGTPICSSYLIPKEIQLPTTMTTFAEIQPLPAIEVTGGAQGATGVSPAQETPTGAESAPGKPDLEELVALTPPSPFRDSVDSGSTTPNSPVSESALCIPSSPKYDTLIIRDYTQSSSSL

Take `C[C@@H](NC(=O)c1ccc(C#Cc2cccc(F)c2)cn1)C(C)(C)O`: the fold shift was 4.6. Moreover, for the setting “glutamate fold shift, glutamate max response with compound”, the maximal response (Emax) came out at 62%. For the setting “glutamate fold shift, glutamate min response (ago-PAM)”, the Emin was 45%.
